The values that follow are results of earlier work, collected in patent publication US10627374B2, “LC-MS configuration for purification and detection of analytes having a broad range of hydrophobicites” (COHESIVE TECHNOLOGIES INC., priority 2010, dated 2020).

Read-outs that look alike come from different tables or passages of the source.

Take `O=c1[nH]cc(F)c(=O)[nH]1` [5-Fluorouracil]: the lipophilicity (logP) (Table 2) was −0.9.

For `CS(=O)(=O)OCCCCOS(C)(=O)=O` [Busulfan], the lipophilicity (logP) is, setting by setting: (Table 1) −1.15; (Table 2) −1.15.

As for `C[C@]12CCC(=O)C=C1CC[C@@H]1[C@@H]2[C@@H](O)C[C@@]2(C)[C@H]1CC[C@]2(O)C(=O)CO` [Cortisol (hydrocortisone)], the log partition coefficient (logP) is 1.26 (Table 1) and 1.26 (Table 2).

With `CO[C@H]1C[C@@H]2CC[C@@H](C)[C@@](O)(O2)C(=O)C(=O)N2CCCC[C@H]2C(=O)O[C@H]([C@H](C)C[C@@H]2CC[C@@H](OCCO)[C@H](OC)C2)CC(=O)[C@H](C)/C=C(\C)[C@@H](O)[C@@H](OC)C(=O)[C@H](C)C[C@H](C)/C=C/C=C/C=C/1C` [Everolimus], the logP (Table 1) is 5.01 and the logP (Table 2) is 5.01. Also, for the setting “approximate”, the “log P” value is on record as “about 5.01”.

In the case of `CN(Cc1cnc2nc(N)nc(N)c2n1)c1ccc(C(=O)N[C@@H](CCC(=O)O)C(=O)O)cc1` [Methotrexate], the logP was 0.94 (Table 1) and 0.94 (Table 2).

As to `C[C@]12C=CC(=O)C=C1CC[C@@H]1[C@@H]2C(=O)C[C@@]2(C)[C@H]1CC[C@]2(O)C(=O)CO` [Prednisone], the log partition coefficient (logP) (Table 1) is 2.07 and the lipophilicity (logP) (Table 2) is given as 2.07.

On to `C=CC[C@@H]1/C=C(\C)C[C@H](C)C[C@H](OC)[C@H]2O[C@@](O)(C(=O)C(=O)N3CCCC[C@H]3C(=O)O[C@H](/C(C)=C/[C@@H]3CC[C@@H](O)[C@H](OC)C3)[C@H](C)[C@@H](O)CC1=O)[C@H](C)C[C@@H]2OC` [Tacrolimus], for which the lipophilicity (logP) is, setting by setting: (Table 1) 3.3; (Table 2) 3.3.
